Data on 5 molecules can be found in US6166205A, “2-Aryl-4-(1-[4-heteroaryl]piperazin-1-yl)methylimidazoles: dopamine . D.sub4 receptor subtype ligands” (Neurogen Corporation, priority 1999, dated 2000).

One experiment concerns the target D4 receptor. Description: dopamine D4 receptor binding assay (3H-YM 09151-2). On the set-up: species or system African Green monkey. As to conditions: 0.5 nM 3H-YM 09151-2; COS cells with recombinantly produced D4 receptors; Table 2: rat striatal homogenates. As to the method: (§1) Assays For D2 And D4 Receptor Binding Activity
(§2) Pellets of COS cells containing recombinantly produced D2 or D4 receptors from African Green monkey are used for the assays. A sample is homogenized in 100 volumes (w/vol) of 0.05 M Tris HCl buffer at 4° C. and pH 7.4 and then centrifuged at 30,000×g and resuspended and rehomogenized. The sample is again centrifuged at 30,000×g and the final tissue sample is frozen until use. The tissue is resuspended 1:20 (wt/vol) in 0.05 M Tris HCl buffer containing 100 mM NaCl.
(§3) Incubations are carried out at […] and contain 0.4 ml of tissue sample, 0.5 nM ^3 H-YM 09151-2(Nemonapride, cis-5-Chloro-2-methoxy-4-(methylamino)-N-(2-methyl-2-(phenylmethyl)-3-pyrrolidinyl)benzamide) and the compound of interest in a total incubation of 1.0 ml. Nonspecific binding is defined as that binding found in the presence of […] spiperone; without further additions, nonspecific binding is less than 20% of total binding. The binding characteristics of representative compounds of this invention for the D2 and D4 receptor subtypes are shown in Table 2 for rat striatal homogenates.

A further experiment addresses D2 receptor (Chlorocebus aethiops, UniProt P52702). The experiment can be described thus: dopamine D2 receptor binding assay (3H-YM 09151-2). On the set-up: species or system African Green monkey. As to conditions: 0.5 nM 3H-YM 09151-2; COS cells with recombinantly produced D2 receptors; Table 2: rat striatal homogenates. As to the method: as §1, §2, §3

Structures can show the parent of a compound that is named as a salt.

Sequence of D2 receptor (P52702 whole entry): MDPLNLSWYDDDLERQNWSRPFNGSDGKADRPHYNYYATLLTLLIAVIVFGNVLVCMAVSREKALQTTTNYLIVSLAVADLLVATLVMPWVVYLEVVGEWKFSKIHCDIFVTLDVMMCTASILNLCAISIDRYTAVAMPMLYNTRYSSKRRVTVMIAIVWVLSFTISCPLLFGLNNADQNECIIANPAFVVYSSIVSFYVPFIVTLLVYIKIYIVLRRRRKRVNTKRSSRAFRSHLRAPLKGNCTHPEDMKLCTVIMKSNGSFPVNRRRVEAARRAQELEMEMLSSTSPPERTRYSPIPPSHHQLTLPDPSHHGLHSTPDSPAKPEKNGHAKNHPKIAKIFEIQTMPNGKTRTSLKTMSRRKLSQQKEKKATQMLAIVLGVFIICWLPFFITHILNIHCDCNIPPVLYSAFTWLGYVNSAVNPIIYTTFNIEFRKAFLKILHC

Consider `c1ccc(-c2ncc(CN3CCN(c4ccc5c(n4)CCCC5)CC3)[nH]2)cc1` [Compound 1a, (1-[(2-phenylimidazol-5-yl)methyl]-4-(2-5,6,7,8-tetrahydroquinolyl)piperazine hydrobromide], for which the Ki at D4 receptor is 14 nM; at D2 receptor it was above 1000 nM. For `c1ccc(-c2ncc(CN3CCN(c4ccc5ccccc5n4)CC3)[nH]2)cc1` [Compound 2a, 1-[(2-phenylimidazol-5-yl)methyl]-4-(2-quinolyl)piperazine hydrobromide] the same measures were 9 nM and 784 nM. Regarding `Fc1ccccc1-c1ncc(CN2CCN(c3ccc4ccccc4n3)CC2)[nH]1` [Compound 3a, 1-{[2-(2-fluorophenyl)imidazol-5-yl]methyl}-4-(2-quinolyl)piperazine oxalate], the Ki on D4 receptor amounted to 17 nM; on D2 receptor, 978 nM. Turning to `c1ccc(-c2ncc(CN3CCN(c4ncc5ccccc5n4)CC3)[nH]2)cc1` [Compound 4a, 2-{4-[(2-phenylimidazol-5-yl)methyl]piperazinyl}quinazoline], the inhibition constant Ki on D2 receptor is 2680 nM. On the same count and under the same terms, the value for `c1ccc(-c2ncc(CN3CCN(c4cnc5ccccc5n4)CC3)[nH]2)cc1` [Compound 5, 2-{4-[(2-phenylimidazol-5-yl)methyl]piperazinyl}quinoxaline] was 2050 nM.

Broadly, the Ki is the equilibrium dissociation constant of an inhibitor or competing ligand from its target.
